Data reported in BindingDB's records for doi:10.1016/s0960-894x(03)00195-1 (Abbott Laboratories, 2003).

Assay: Inhibition of transfer of […] to biotin K-ras peptide (KKSKTKCVLL) catalyzed by bovine GGTase-I

| Compound | IC50 |
| --- | --- |
| Cn1cncc1[C@H](OCc1nc(Cl)c(C#N)cc1-c1cccc(Cl)c1)c1ccc(C#N)cc1 | 2800 nM |
| Cn1cncc1C(OCc1ncc(C#N)cc1-c1cccc(Cl)c1)c1ccc(C#N)cc1 (centres undefined) | 4200 nM |
| CN1CCN(c2nc(COC(c3ccc(C#N)cc3)c3cncn3C)c(-c3cccc(Cl)c3)cc2C#N)CC1 (centres undefined) [5-(3-Chloro-phenyl)-6-[(4-cyano-phenyl)-(3-methyl-3H-imidazol-4-yl)-methoxymethyl]-2-(4-methyl-piperazin-1-yl)-nicotinonitrile] | 2400 nM |
| Cn1cncc1C(OCc1nc(N2CCOCC2)c(C#N)cc1-c1cccc(Cl)c1)c1ccc(C#N)cc1 (centres undefined) [5-(3-Chloro-phenyl)-6-[(4-cyano-phenyl)-(3-methyl-3H-imidazol-4-yl)-methoxymethyl]-2-morpholin-4-yl-nicotinonitrile] | 1800 nM |
| Cn1cncc1C(OCc1ccc(C#N)nc1-c1cc(F)cc(F)c1)c1ccc(C#N)cc1 (centres undefined) | 4800 nM |
| Cn1cncc1C(OCc1nc(N2CCC(C(N)=O)CC2)c(C#N)cc1-c1cccc(Cl)c1)c1ccc(C#N)cc1 (centres undefined) [5'-(3-Chloro-phenyl)-3'-cyano-6'-[(4-cyano-phenyl)-(3-methyl-3H-imidazol-4-yl)-methoxymethyl]-3,4,5,6-tetrahydro-2H-[1,2']bipyridinyl-4-carboxylic acid amide] | 2100 nM |
| Cn1cncc1C(OCc1ccc(C#N)nc1-c1cc(Cl)cc(Cl)c1)c1ccc(C#N)cc1 (centres undefined) [5-[(4-Cyano-phenyl)-(3-methyl-3H-imidazol-4-yl)-methoxymethyl]-6-(3,5-dichloro-phenyl)-pyridine-2-carbonitrile] | 1400 nM |
| COc1cccc(-c2cc(C#N)ccc2COC(c2ccc(C#N)cc2)c2cncn2C)c1 (centres undefined) [4-{[(4-cyanophenyl)(1-methyl-1H-imidazol-5-yl)methoxy]methyl}-3-(3-methoxyphenyl)benzonitrile] | 3900 nM |
| Cn1cncc1C(OCc1ccc(C#N)cc1-c1cccc(Cl)c1)c1ccc(C#N)nc1 (centres undefined) [5-[(3'-Chloro-5-cyano-biphenyl-2-ylmethoxy)-(3-methyl-3H-imidazol-4-yl)-methyl]-pyridine-2-carbonitrile] | 8620 nM |
| Cn1cncc1C(OCc1ccc(C#N)nc1-c1ccc2c(c1)OC(F)(F)O2)c1ccc(C#N)cc1 (centres undefined) [5-[(4-Cyano-phenyl)-(3-methyl-3H-imidazol-4-yl)-methoxymethyl]-6-(2,2-difluoro-benzo[1,3]dioxol-5-yl)-pyridine-2-carbonitrile] | 1100 nM |
| Cn1cncc1C(OCc1ccc(C#N)cc1-c1ccc(F)c(Cl)c1)c1ccc(C#N)nc1 (centres undefined) [5-[(3'-Chloro-5-cyano-4'-fluoro-biphenyl-2-ylmethoxy)-(3-methyl-3H-imidazol-4-yl)-methyl]-pyridine-2-carbonitrile] | 8600 nM |
| Cn1cncc1C(OCc1ccc(C#N)nc1-c1ccc(OC(F)(F)F)cc1)c1ccc(C#N)cc1 (centres undefined) [5-[(4-Cyano-phenyl)-(3-methyl-3H-imidazol-4-yl)-methoxymethyl]-6-(4-trifluoromethoxy-phenyl)-pyridine-2-carbonitrile] | 1200 nM |
| Cn1cncc1C(OCc1ccc(C#N)c(-c2ccc3ccccc3c2)n1)c1ccc(C#N)cc1 (centres undefined) | 2600 nM |
| Cn1cncc1C(OCc1ccc(C#N)nc1-c1ccc2ccccc2c1)c1ccc(C#N)cc1 (centres undefined) [5-[(4-Cyano-phenyl)-(3-methyl-3H-imidazol-4-yl)-methoxymethyl]-6-naphthalen-2-yl-pyridine-2-carbonitrile] | 5500 nM |
| CC(=O)N1CCN(c2nc(COC(c3ccc(C#N)cc3)c3cncn3C)c(-c3cccc(Cl)c3)cc2C#N)CC1 (centres undefined) | 2100 nM |
| Cn1cncc1C(OCc1ccc(C#N)nc1-c1cccc(Cl)c1)c1ccc(C#N)cc1 (centres undefined) [6-(3-Chloro-phenyl)-5-[(4-cyano-phenyl)-(3-methyl-3H-imidazol-4-yl)-methoxymethyl]-pyridine-2-carbonitrile] | 1700 nM |

The remaining lines, values ahead:

| IC50 | Compound |
| --- | --- |
| 960 nM | Cn1cncc1C(OCc1ccc(C#N)cc1-c1cc(Cl)cc(Cl)c1)c1ccc(C#N)nc1 (centres undefined) [5-[(3',5'-Dichloro-5-cyano-biphenyl-2-ylmethoxy)-(3-methyl-3H-imidazol-4-yl)-methyl]-pyridine-2-carbonitrile] |
| 510 nM | Cn1cncc1C(OCc1ccc(C#N)nc1-c1cccc(OC(F)(F)F)c1)c1ccc(C#N)cc1 (centres undefined) |
| 650 nM | Cn1cncc1C(OCc1nc(N2CCN(C(=O)OC(C)(C)C)CC2)c(C#N)cc1-c1cccc(Cl)c1)c1ccc(C#N)cc1 (centres undefined) |
| 990 nM | Cn1cncc1C(OCc1ccc(C#N)cc1-c1cccc(OC(F)(F)F)c1)c1ccc(C#N)nc1 (centres undefined) [5-[(5-Cyano-3'-trifluoromethoxy-biphenyl-2-ylmethoxy)-(3-methyl-3H-imidazol-4-yl)-methyl]-pyridine-2-carbonitrile] |
| 1100 nM | Cn1cncc1C(OCc1ccc(C#N)c(-c2cccc(Cl)c2)n1)c1ccc(C#N)cc1 (centres undefined) [2-(3-Chloro-phenyl)-6-[(4-cyano-phenyl)-(3-methyl-3H-imidazol-4-yl)-methoxymethyl]-nicotinonitrile] |
| 24 nM | Cn1cncc1C(OCc1ccc(C#N)cn1)c1ccc(C#N)c(-c2cccc3ccccc23)c1 (centres undefined) [A-315493] |
| 103 nM | Cn1cncc1C(OCc1ccc(C#N)cc1)c1ccc(C#N)c(-c2cccc3cccnc23)c1 (centres undefined) [4-[(4-Cyano-benzyloxy)-(3-methyl-3H-imidazol-4-yl)-methyl]-2-quinolin-8-yl-benzonitrile] |
| 830 nM | Cn1cncc1C(OCc1nc(N2CCC(O)CC2)c(C#N)cc1-c1cccc(Cl)c1)c1ccc(C#N)cc1 (centres undefined) [5'-(3-Chloro-phenyl)-6'-[(4-cyano-phenyl)-(3-methyl-3H-imidazol-4-yl)-methoxymethyl]-4-hydroxy-3,4,5,6-tetrahydro-2H-[1,2']bipyridinyl-3'-carbonitrile] |
